According to patent publication EP0236913A2, “Aryl-azolylmethyl-benzocyclo-alkene derivatives, process for their preparation and their use” (HOECHST AKTIENGESELLSCHAFT, priority 1986, dated 1987):
Converted amounts (≈) assume the structure as drawn.

Experiments:
[1] = tested on: Pentetrazol-induzierte Krämpfe; experiment: antagonism of pentetrazol-induced convulsions (PTZ); type: in vivo, Maus; details: mouse; pentetrazol 125 mg/kg s.c. 1 h after oral test substance; tonic extensor convulsions; read-out: ED50 (mg/kg p.o.) Ptz
Protocol: Antagonismus gegen Pentetrazol-induzierte Krämpfe (Maus) (PTZ)
(§1) Methode: • Gruppen von 10 männlichen Mäusen (Stamm: NMRI, SPF-71, KF) im Gewicht von 18-22 g werden in diesem Versuch verwendet. Die zu prüfenden Substanzen werden in einer 1 %igen Aufschwemmung von Tylose (Methyl-hydroxy-ethyl-cellulose) in Wasser suspendiert und per Schlundsonde in einem Volumen von 10 ml/kg Körpergewicht oral verabreicht. Die Kontrollgruppe erhält ein entsprechendes Volumen Tylosesuspension ohne Prüfsubstanz.
Pentetrazol (Cardiazol (R)) wird in wäßriger Lösung in einer Dosis von 125 mg/kg Körpergewicht 1 Stunde nach Verabreichung der Prüfsubstanzen subcutan injiziert. Diese Dosis erzeugt bei 90-100 % der Kontrolltiere innerhalb der Beobachtungszeit von 60 Minuten nach der Injektion tonische Extensorkrämpfe der hinteren Extremitäten. Als Schutzwirkung der Prüfsubstanz wird gewertet, wenn die Anzahl der krampfenden Tiere gegenüber der Kontrollgruppe vermindert ist.
Bei vorhandener Schutzwirkung der Prüfsubstanz wird eine mittlere effektive Dosis (ED-50) grafisch (Litchfield and Wilcoxon) oder rechnerisch(Probitanalyse) ermittelt.
Literatur: E.A. SWINYARD, J.Pharmacol.Exp. Ther. 106, (1952), 319-330

[2] = tested on: Pseudo-cercosporella herpotrichoides; experiment: agar plate test with Pseudocercosporella cultures (Versuch V); type: cell-based; details: 144 h, 6 days after inoculation, read-out: Wirkungsgrad gegenüber Pseudo-cercosporella herpotrichoides in %; for inhibition of growth at 125 µg/mL: 125 ppm Wirkstoff in Biomalzagar; for inhibition of growth at 250 µg/mL: 250 ppm Wirkstoff in Biomalzagar; for inhibition of growth at 500 µg/mL: 500 ppm Wirkstoff in Biomalzagar
Protocol: Biomalzagar wurde mit den beanspruchten Verbindungen in den in Tabelle 10 angegebenen Konzentrationen versetzt. Nach dem Erstarren des Agars erfolgte die Beimpfung mit Pseudocercosporella-Kulturen. Jeweils 20 µl einer Sporensuspension wurden auf das Zentrum der Agarplatte aufgebracht. Die Versuche wurden 6 Tage nach Beimpfung ausgewertet. Der Wirkungsgrad der Wirkstoffe wird ausgedrückt in % im Vergleich zur Kontrolle (Agarmedium ohne Wirkstoff).

[3] = acute oral toxicity (LD-50); details: in vivo, per os
[4] = tested on: Elektroschock-induzierte Krämpfe; experiment: antagonism of electroshock-induced convulsions (ECS); type: in vivo, Maus; details: mouse; corneal electroshock 1 h after oral test substance; tonic extensor convulsions; read-out: ED50 (mg/kg p.o.) ECS
Protocol: Antagonismus gegen Elektroschock-induzierte Krämpfe (Maus) (ECS)
as §1, with “Gruppen von 6 männlichen Mäusen” for “Gruppen von 10 männlichen Mäusen”
Eine Stunde nach Prüfsubstanzgabe wird den.Tieren über Cornea-Elektroden ein Elektroschock verabreicht (Stromstärke 12-22 mA, Dauer 0.2 sec. 50 Hz), nachdem vorher an einer zweiten Kontrollgruppe die Stromstärke ermittelt worden war, die bei 100 % der Tiere einen tonischen Extensorkrampf der hinteren Extremitäten hervorruft.
Die Anzahl der durch die Prüfsubstanz vor einem Extensorkrampf geschützten Tiere dient als Maß der antikonvulsiven Wirkung in diesem Test.
Bei vorhandener Schutzwirkung der Prüfsubstanz wird eine mittlere effektive Dosis (ED-50) grafisch (Litchfield and Wilcoxon) oder rechnerisch (Probitanalyse) ermittelt.
Literatur: E.A. SWINYARD, In: Experimental Models of Epilepsy, Raven Press, New York, 1972, p. 433-458.

[5] = tested on: Trichophyton rubrum (101/58); experiment: in vitro antimycotic serial dilution test (microtitration technique); type: cell-based; details: read-out: Minimale Hemmkonzentration
Excerpt: (§2) Die in vitro-Prüfungen auf antimykotische Wirkung wurden im Reihenverdünnungstest an Hauptpilzen (Trichophyton mentagrophytes, Trichophyton rubrum, Microsporum canis), Hefepilzen (Candida Albicans) und Schimmelpilzen (Aspergillus niger) durchgeführt (Material und Methodik: Mikrotitrationstechnik veröffentlicht in Mykosen 27,14 (1984). Wie aus Tabelle 4 ersichtlich, zeigen bei diesen in vitro-Prüfungen die erfindungsgemäßen Verbindungen gute antimykotische Eigenschaften,die denjenigen der Referenzsubstand Clotrimazol überlegen sind.

[6] = tested on: Microsporum canis (150/120); experiment: as above; type: cell-based; details: read-out: Minimale Hemmkonzentration
Excerpt: as §2

[7] = tested on: Aspergillus niger (500/284); experiment: as above; type: cell-based; details: read-out: Minimale Hemmkonzentration
Excerpt: as §2

[8] = tested on: Trichophyton mentagrophytes (100/25); experiment: as above; type: cell-based; details: read-out: Minimale Hemmkonzentration
Excerpt: as §2

[9] = tested on: Trichophyton mentagrophytes; experiment: local in vivo efficacy in experimentally infected guinea pigs, dermal treatment; parameters: species or system Meerschweinchen (Stamm Pirbright white); details: Dermal 5 x 0.1 %; for Mykosen (Durchmesser in mm) Präparat + Vehikel x2: from day 3 after infection, mean, n = 6 measurements; for Mykosen Differenz (%): difference relative to Clotrimazol = 100; for Mykosen (Durchmesser in mm) Differenz x1 - x2: vehicle control side minus treated side
Excerpt: Als Beispiel für die hohe lokale in vivo Wirksamkeit der erfindungsgemäßen Verbindungen werden Behandlungsergebnisse an experimentell mit Trichophyton mentagrophytes infizierten Labortieren angeführt.
Zur Feststellung der lokalen Wirksamkeit wurden jeweils zwei 450-500 g schwere Meerschweinchen (Stamm Pirbright white) mit 1,5 x 10^4 Konidien/Tier in die Epidermis, verteilt auf 6 Infektionspunkte, infiziert.
Die Behandlung der Tiere erfolgte dermal ab dem 3. Tag nach der Infektion an 5 aufeinanderfolgenden Tagen durch Aufbringen einer 0,1 %igen Präparatlösung auf 3 Infektionsstellen einer Rückenseite. Die andere Rückenseite wurde mit Vehikel ohne Präparat auf gleiche Weise behandelt.
Neben den mit den erfindungsgemäßen Substanzen behandelten Tieren wurden zwei Tiere mit der Referenzsubstanz Clotrimazol behandelt, zwei Tiere blieben nach der Infektion unbehandelt.

[10] = tested on: Candida albicans (200/175); experiment: in vitro antimycotic serial dilution test (microtitration technique); type: cell-based; details: read-out: Minimale Hemmkonzentration
[11] = tested on: Weizenmehltau (Erysiphe graminis); experiment: wheat powdery mildew, curative spray test on wheat plants (Versuch I); type: in vivo; details: untreated infected control = 100 %
Protocol: Weizenpflanzen werden im 3-Blattstadium mit Konidien des Weizenmehltaus (Erysiphe graminis) stark inokuliert und in einem Gewächshaus bei 20°C und einer relativen Luftfeuchte von 90 - 95% aufgestellt. 3 Tage nach Inokulation werden die Pflanzen mit den in Tabelle 6 aufgeführten Verbindungen in den angegebenen Wirkstoffkonzentrationen gleichmäßig benetzt. Nach einer Inkubationszeit von 10 Tagen werden die Pflanzen auf den Befall mit Weizenmehltau untersucht. Der Befallsgrad wird ausgedrückt in % befallener Blattfläche, bezogen auf unbehandelte, infizierte Kontrollpflanzen (= 100% Befall). Das Ergebnis ist in der Tabelle 6 zusammengefaßt.

[12] = 60 mg Wirkstoff/Liter Spritzbrühe
[13] = 125 mg Wirkstoff/Liter Spritzbrühe
[14] = 250 mg Wirkstoff/Liter Spritzbrühe
[15] = 500 mg Wirkstoff/Liter Spritzbrühe

SMILES	ED50 [1] [mg/kg]	inhibition of growth at 125 µg/mL [2] [%]	inhibition of growth at 250 µg/mL [2] [%]	inhibition of growth at 500 µg/mL [2] [%]	LD50 [3] [mg/kg]	ED50 [4] [mg/kg]	MIC [5] [µg/mL]	MIC [6] [µg/mL]	MIC [7] [µg/mL]	MIC [8] [µg/mL]	Mykosen (Durchmesser in mm) Präparat + Vehikel x2 [9] [mm]	Mykosen Differenz (%) [9]	Mykosen (Durchmesser in mm) Differenz x1 - x2 [9] [mm]	MIC [10] [µg/mL]	mit Weizenmehltau befallene Blattfläche in % [11, 12]	mit Weizenmehltau befallene Blattfläche in % [11, 13]	mit Weizenmehltau befallene Blattfläche in % [11, 14] [%]	mit Weizenmehltau befallene Blattfläche in % [11, 15] [%]
c1ccc(-c2ccc(C3(Cn4ccnc4)CCc4ccccc43)cc2)cc1 (centres unmarked) [Verbindung 13 (Tab. 1)]	16	100	100	100	> 300	17.3												
Clc1ccc(C2(Cn3ccnc3)CCCc3ccccc32)cc1 (centres unmarked) [Verbindung 20 (Tab. 1)]							0.97 (≈ 3 µM)	0.97 (≈ 3 µM)	0.97 (≈ 3 µM)	0.97 (≈ 3 µM)	4.3	(138.5) %	9.7	1.95 (≈ 6.04 µM)	3%	0-3%	0	0
Fc1cc(Cl)ccc1C1(Cn2ccnc2)CCCc2ccccc21 (centres unmarked) [Verbindung 33 (Tab. 1)]	55	100	100	100		24.6												
c1ccc(-c2ccc(C3(Cn4ccnc4)CCCc4ccccc43)cc2)cc1 (centres unmarked) [Verbindung 60 (Tab. 1)]		100	100	100			0.06 (≈ 0.165 µM)	0.007 (≈ 0.0192 µM)	1.95 (≈ 5.35 µM)	0.24 (≈ 0.658 µM)	4.5	(157.1) %	11	0.48 (≈ 1.32 µM)				
c1ccc(Oc2ccc(C3(Cn4ccnc4)CCc4ccccc43)cc2)cc1 (centres unmarked) [Verbindung 67 (Tab. 1)]							0.97 (≈ 2.65 µM)	0.06 (≈ 0.164 µM)	1.95 (≈ 5.32 µM)	0.97 (≈ 2.65 µM)	3.2	(107.1) %	7.5	1.95 (≈ 5.32 µM)				
Cc1ccc(C2(Cn3ccnc3)CCc3ccccc32)cc1C (centres unmarked) [Verbindung 53 (Tab. 1)]	30	100	100	100	> 300	35.1												
OC1(Cn2ccnc2)CCc2ccccc21 (centres unmarked) [Verbindung 1 (Tab. 3), 1-Hydroxy-1-(1H-imidazol-1-ylmethyl)-indan]	70				300	18.2												
Clc1ccccc1C(c1ccccc1)(c1ccccc1)n1ccnc1 [Clotrimazol, reference compound]							0.97 (≈ 2.81 µM)	0.97 (≈ 2.81 µM)	1.95 (≈ 5.65 µM)	0.97 (≈ 2.81 µM)	7.6	(100) %	7	3.9 (≈ 11.3 µM)				
OC1(Cn2ccnc2)CCc2cc(Oc3ccccc3)ccc21 (centres unmarked) [Verbindung 11 (Tab. 3)]	9.3	100	100	100														
c1ccc(Oc2ccc(C3(Cn4ccnc4)CCCc4ccccc43)cc2)cc1 (centres unmarked) [Verbindung 70 (Tab. 1)]							0.12 (≈ 0.315 µM)	0.06 (≈ 0.158 µM)	0.97 (≈ 2.55 µM)	0.48 (≈ 1.26 µM)	3	(182.8) %	12.8	0.97 (≈ 2.55 µM)				
CC1(C)CC(O)(Cn2ccnc2)c2ccccc21 (centres unmarked) [Beispiel 36, 1-(1H-Imidazol-1-ylmethyl)-3,3-dimethyl-indan-1-ol]															0-3%	0-3%	0	0
Fc1ccc(C2(Cn3ccnc3)CCCc3ccccc32)c(F)c1 (centres unmarked) [Verbindung 32 (Tab. 1)]	17.2	100	100	100		60												
